According to ChEMBL document CHEMBL1201862, “PubChem BioAssay data set” (2004):
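Results reflect a 48-hour exposure of cells in 96-well plates to compound at five concentrations. At the GI50, growth is halved.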 Calls of active or inactive are those of the source. No stated cut-off is given here; in the data, active = GI50 up to about 1.1 µM and inactive = higher.

Key:
Assay in all cases: inhibition of tumour cell growth, NCI panel, 48 h
NCI-H226 = tested on: NCI-H226
OVCAR-5 = tested on: OVCAR-5
OVCAR-4 = tested on: OVCAR-4
HOP-62 = tested on: HOP-62
UACC-257 = tested on: UACC-257
SK-OV-3 = tested on: SK-OV-3
MCF7 = tested on: MCF7
SNB-75 = tested on: SNB-75
786-0 = tested on: 786-0
SK-MEL-5 = tested on: SK-MEL-5
MDA-MB-231 = tested on: MDA-MB-231
ACHN = tested on: ACHN
NCI-H522 = tested on: NCI-H522
UACC-62 = tested on: UACC-62
RPMI-8226 = tested on: RPMI-8226
SF-295 = tested on: SF-295
EKVX = tested on: EKVX
UO-31 = tested on: UO-31
CCRF-CEM = tested on: CCRF-CEM
Hs-578T = tested on: Hs-578T

Row | SMILES | GI50 (NCI-H226) | GI50 (OVCAR-5) | GI50 (OVCAR-4) | GI50 (HOP-62) | GI50 (UACC-257) | GI50 (SK-OV-3) | GI50 (MCF7) | GI50 (SNB-75) | GI50 (786-0) | GI50 (SK-MEL-5) | GI50 (MDA-MB-231) | GI50 (ACHN) | GI50 (NCI-H522) | GI50 (UACC-62) | GI50 (RPMI-8226) | GI50 (SF-295) | GI50 (EKVX) | GI50 (UO-31) | GI50 (CCRF-CEM) | GI50 (Hs-578T)
1 | CC1(C)CCC[C@]2(C)[C@@H]1CC[C@@]13O[C@@H]1C1=C(CO)C(=O)OC1=C[C@@H]23 | 15.7 µM (inactive) | 9.71 µM (inactive) | 19.2 µM (inactive) | 25.6 µM (inactive) | 18.2 µM (inactive) | 20.6 µM (inactive) | 26.4 µM (inactive) | 30.5 µM (inactive) | 14.3 µM (inactive) | 15.5 µM (inactive) | 31.1 µM (inactive) | 29.2 µM (inactive) | 10.1 µM (inactive) | 13.5 µM (inactive) | 21.1 µM (inactive) | 16.9 µM (inactive) | 13.9 µM (inactive) | 11.7 µM (inactive) | – | –
2 | OC1C2C=CCC1CCC2 (configuration not stated) | > 100 µM (inactive) | > 100 µM (inactive) | > 100 µM (inactive) | > 100 µM (inactive) | > 100 µM (inactive) | > 100 µM (inactive) | – | > 100 µM (inactive) | > 100 µM (inactive) | > 100 µM (inactive) | – | > 100 µM (inactive) | > 100 µM (inactive) | > 100 µM (inactive) | > 100 µM (inactive) | > 100 µM (inactive) | > 100 µM (inactive) | > 100 µM (inactive) | > 100 µM (inactive) | –
3 | CCn1c2ccccc2c2ccc(C3C(C(=O)OC)=C(C)NC(C)=C3C(=O)OC)cc21 | 33 µM (inactive) | > 100 µM (inactive) | 51.5 µM (inactive) | 55.1 µM (inactive) | 48.2 µM (inactive) | > 100 µM (inactive) | 27 µM (inactive) | 51.5 µM (inactive) | 38.2 µM (inactive) | 43.6 µM (inactive) | 15.9 µM (inactive) | 38.8 µM (inactive) | – | 87.9 µM (inactive) | 21.1 µM (inactive) | 31.7 µM (inactive) | 45.6 µM (inactive) | 39 µM (inactive) | 30.4 µM (inactive) | –
4 | CCOC(=O)NN1C(=O)C(=P(c2ccccc2)(c2ccccc2)c2ccccc2)C(C(=O)OCC)=C1C | > 100 µM (inactive) | > 100 µM (inactive) | > 100 µM (inactive) | > 100 µM (inactive) | > 100 µM (inactive) | > 100 µM (inactive) | – | > 100 µM (inactive) | > 100 µM (inactive) | > 100 µM (inactive) | – | > 100 µM (inactive) | > 100 µM (inactive) | > 100 µM (inactive) | > 100 µM (inactive) | > 100 µM (inactive) | > 100 µM (inactive) | > 100 µM (inactive) | > 100 µM (inactive) | –
5 | COc1ccccc1NC(=O)c1nc2ccc([N+](=O)[O-])cc2nc1C | 99.3 µM (inactive) | > 100 µM (inactive) | > 100 µM (inactive) | 97.1 µM (inactive) | > 100 µM (inactive) | > 100 µM (inactive) | – | 65.3 µM (inactive) | > 100 µM (inactive) | > 100 µM (inactive) | – | > 100 µM (inactive) | 57.8 µM (inactive) | > 100 µM (inactive) | > 100 µM (inactive) | – | > 100 µM (inactive) | > 100 µM (inactive) | > 100 µM (inactive) | –
6 | Cc1cc(-c2cscn2)c(O)c([N+](=O)[O-])c1 | – | > 100 µM (inactive) | 82.6 µM (inactive) | 52.7 µM (inactive) | 63.8 µM (inactive) | 16.1 µM (inactive) | 21.4 µM (inactive) | – | 60.8 µM (inactive) | 31 µM (inactive) | – | 37.2 µM (inactive) | – | 62.7 µM (inactive) | 52.6 µM (inactive) | 0.906 µM (active) | 65.8 µM (inactive) | 50.2 µM (inactive) | 41 µM (inactive) | 90.8 µM (inactive)
7 | O=C1CNc2cc(N3CCOCC3)ccc2N1 | > 100 µM (inactive) | > 100 µM (inactive) | > 100 µM (inactive) | > 100 µM (inactive) | > 100 µM (inactive) | > 100 µM (inactive) | – | > 100 µM (inactive) | > 100 µM (inactive) | > 100 µM (inactive) | > 100 µM (inactive) | > 100 µM (inactive) | > 100 µM (inactive) | 64.9 µM (inactive) | > 100 µM (inactive) | > 100 µM (inactive) | 2.91 µM (inactive) | > 100 µM (inactive) | > 100 µM (inactive) | 57.3 µM (inactive)
8 | COc1ccc(-c2c(N)n(-c3cccc(C(=O)O)c3)c(=O)c3cc([N+](=O)[O-])ccc23)cc1 | > 100 µM (inactive) | > 100 µM (inactive) | > 100 µM (inactive) | > 100 µM (inactive) | > 100 µM (inactive) | > 100 µM (inactive) | > 100 µM (inactive) | > 100 µM (inactive) | > 100 µM (inactive) | > 100 µM (inactive) | – | > 100 µM (inactive) | > 100 µM (inactive) | > 100 µM (inactive) | > 100 µM (inactive) | > 100 µM (inactive) | > 100 µM (inactive) | > 100 µM (inactive) | > 100 µM (inactive) | > 100 µM (inactive)
9 | O=C(Cc1ccccc1)Oc1ccc2c(-c3ccccc3)c(C(=O)Nc3ccc(Cl)cc3)c(=O)oc2c1 | > 100 µM (inactive) | > 100 µM (inactive) | > 100 µM (inactive) | > 100 µM (inactive) | > 100 µM (inactive) | > 100 µM (inactive) | – | > 100 µM (inactive) | > 100 µM (inactive) | > 100 µM (inactive) | – | > 100 µM (inactive) | > 100 µM (inactive) | > 100 µM (inactive) | > 100 µM (inactive) | > 100 µM (inactive) | > 100 µM (inactive) | > 100 µM (inactive) | > 100 µM (inactive) | –
10 | COc1ccc(NC(=O)CC(=O)N/N=C/c2ccc(N(CCC#N)S(=O)(=O)c3ccccc3)cc2)cc1 | > 100 µM (inactive) | > 100 µM (inactive) | > 100 µM (inactive) | > 100 µM (inactive) | > 100 µM (inactive) | > 100 µM (inactive) | – | > 10 µM (inactive) | > 100 µM (inactive) | > 100 µM (inactive) | – | > 100 µM (inactive) | > 100 µM (inactive) | > 100 µM (inactive) | > 100 µM (inactive) | > 100 µM (inactive) | > 100 µM (inactive) | > 100 µM (inactive) | > 100 µM (inactive) | –
11 | Cc1cccc2c(=O)c([Se]c3coc4c(C)cccc4c3=O)coc12 | 16.9 µM (inactive) | 18.9 µM (inactive) | 16.7 µM (inactive) | 11.9 µM (inactive) | 18.2 µM (inactive) | 17.6 µM (inactive) | – | 16.7 µM (inactive) | 17.3 µM (inactive) | 18.2 µM (inactive) | – | 18.4 µM (inactive) | 31.3 µM (inactive) | 17.8 µM (inactive) | 29.2 µM (inactive) | 3.56 µM (inactive) | 17.3 µM (inactive) | 14.9 µM (inactive) | 31.4 µM (inactive) | –
12 | Cc1cccc(C(C)C)c1NC(=O)CC1C(=O)Nc2ccccc2S1(=O)=O (configuration not stated) | 18.7 µM (inactive) | 39.7 µM (inactive) | 12.2 µM (inactive) | 54.6 µM (inactive) | 23.6 µM (inactive) | > 100 µM (inactive) | – | 21.5 µM (inactive) | 13.9 µM (inactive) | 12.3 µM (inactive) | – | 22.9 µM (inactive) | 7.01 µM (inactive) | 11.8 µM (inactive) | 3.14 µM (inactive) | 18.2 µM (inactive) | 16 µM (inactive) | 13.5 µM (inactive) | 7.24 µM (inactive) | –
13 | O=C(CSc1c2ccccc2nc2ccccc12)Nc1ccccc1-c1ccccc1NC(=O)CSc1c2ccccc2nc2ccccc12 | 29.2 µM (inactive) | 56.6 µM (inactive) | 1.48 µM (inactive) | 31.8 µM (inactive) | 22 µM (inactive) | 80.4 µM (inactive) | – | 42.2 µM (inactive) | 6.76 µM (inactive) | 12.8 µM (inactive) | – | 31.5 µM (inactive) | 9.42 µM (inactive) | 18 µM (inactive) | 4.46 µM (inactive) | 25.6 µM (inactive) | 21.4 µM (inactive) | 34.2 µM (inactive) | > 24.6 µM (inactive) | –
14 | O=C1c2ccccc2C2(O)Oc3cccc(O)c3C12O (configuration not stated) | > 100 µM (inactive) | > 100 µM (inactive) | > 100 µM (inactive) | > 100 µM (inactive) | > 100 µM (inactive) | > 100 µM (inactive) | – | > 100 µM (inactive) | > 100 µM (inactive) | > 100 µM (inactive) | – | > 100 µM (inactive) | > 100 µM (inactive) | 62.5 µM (inactive) | > 100 µM (inactive) | > 100 µM (inactive) | > 100 µM (inactive) | > 100 µM (inactive) | > 100 µM (inactive) | –
15 | CC(C)(C)/N=C1\C(=O)C2(C)CCC1C2(C)C (configuration not stated) | > 100 µM (inactive) | > 100 µM (inactive) | > 100 µM (inactive) | > 100 µM (inactive) | > 100 µM (inactive) | > 100 µM (inactive) | 16.8 µM (inactive) | – | > 100 µM (inactive) | > 100 µM (inactive) | > 100 µM (inactive) | > 100 µM (inactive) | – | 14.3 µM (inactive) | > 100 µM (inactive) | > 100 µM (inactive) | > 100 µM (inactive) | > 100 µM (inactive) | – | –
16 | Cc1ccccc1Nc1nc2c(s1)C(=O)c1ccccc1C2=O | 14.4 µM (inactive) | 21.5 µM (inactive) | 2.02 µM (inactive) | 16.4 µM (inactive) | 5.5 µM (inactive) | 21.8 µM (inactive) | 2 µM (inactive) | 15.3 µM (inactive) | 2.95 µM (inactive) | 2.92 µM (inactive) | 3.41 µM (inactive) | 4.95 µM (inactive) | 2.86 µM (inactive) | 4.55 µM (inactive) | 2.93 µM (inactive) | 18 µM (inactive) | 13.3 µM (inactive) | 5.07 µM (inactive) | 3.34 µM (inactive) | –
